{
  "source": "patent US20040235965A1",
  "about": "“Utilization of rutins and aescins in the treatment of circulatory disturbances of the ear” (priority 2001, published 2004)",
  "type_in_all_cases": "in vivo, human",
  "key": {"[1]": {"tested_on": "patient with tinnitus and vertigo attacks", "assay": "Tinnitus pattern in patient case example 3", "settings": "Case 3; 2250 mg troxerutin orally daily; 4th week of treatment", "procedure": "(§1) patient with tinnitus and vertigo attacks for 4 months.\n(§2) A 4-week therapy with 2250 mg of troxerutin orally daily followed. Under this, hearing improved in the 1st week by 10 dB in the low frequency range and by 5 dB in the high frequency range. There was no change in the frequency of vertigo attacks (1 to 4 times within 2 days)."}, "[2]": {"tested_on": "patient with hearing impairment", "assay": "Pure-tone threshold audiometry in patient case examples under oral therapy", "settings": "2250 mg troxerutin orally daily", "source_text": "as §1\nModerate hearing loss existed which was confirmed by pure-tone threshold audiometry to be a loss of hearing especially in the low and high frequency ranges. The underlying disease present was insulin-dependent diabetes mellitus. The findings existed for 4 months with the tendency for progressive worsening. […]"}, "[3]": {"tested_on": "patient with tinnitus and vertigo attacks", "assay": "Frequency of vertigo attacks in patient case example 3", "settings": "Case 3; 2250 mg troxerutin orally daily, 4-week therapy", "procedure": "as §1, §2"}},
  "data": [
    {"substance": "3′,4′,7-tris-O-(β-hydroxyethyl)rutin [troxerutin]", "values": [
      {"measurement": "tinnitus pattern", "setting": "[1]", "result": "intermittent with relatively frequent absences which lasted for hours"},
      {"measurement": "improvement in the audiogram, high-frequency range, right ear", "setting": "[2]; Case 1, 4-week therapy", "result": 10, "unit": "dB"},
      {"measurement": "improvement of audiogram, high frequency range", "setting": "[2]; Case 2, after 1 week", "result": "minor improvement"},
      {"measurement": "improvement of audiogram, low frequency range", "setting": "[2]; Case 2, after 1 week", "result": 10, "unit": "dB"},
      {"measurement": "improvement of hearing, low frequency range", "setting": "[2]; Case 3, moderate hearing loss, 1st week", "result": 10, "unit": "dB"},
      {"measurement": "improvement of hearing, high frequency range", "setting": "[2]; Case 3, 1st week", "result": 5, "unit": "dB"},
      {"measurement": "improvement of hearing, high frequency range", "setting": "[2]; Case 4, week 3", "result": "marginally"},
      {"measurement": "improvement of hearing, low frequency range", "setting": "[2]; Case 4, week 3", "result": 10, "unit": "dB"},
      {"measurement": "frequency of vertigo attacks", "setting": "[3]", "result": "no change"}
    ]}
  ]
}
